Data from patent US5330992A, “1-cyclopropyl-4-pyridyl-quinolinones” (priority 1992, dated 1994).

How the values were obtained:
[1] = target: T1, human topoisomerase II (Homo sapiens, UniProt P11388); assay: Mammalian Topoisomerase II Inhibition Assay (DNA-topo II complex formation); format: biochemical; conditions: EC50 = concentration with activity equal to EC50 of reference mAMSA; read-out: TopoII Inh. EC50
T1 construct: Topo II was purified from late log phase suspension cultures of HeLa WIS; endogenous in cells; host or cells: HeLa WIS suspension cultures, late log phase (enzyme purified from the cells)
Method: Mammalian Topoisomerase II Inhibition Assay Procedure
The assay quantitates the amount of topo II covalently complexed by DNA at equilibrium during a topo II reaction. This assay determines the potential of a compound to stabilize this complex, which potential is closely related to the cytotoxicity of the compound.
Assays (in duplicate) were assembled at 4° C.
4 ng 3' end labeled (^32 P) pBR322 DNA (10^7 DMP/μg)
The assay mix including the test compound was incubated for 20 minutes at 37° C. The reaction was terminated at 37° C. by the addition of 3 μl 10% SDS followed by the addition of 266 μl 10 mM Tris-Cl pH 7.5, 20 μg/ml BSA, 20 μg/ml calf thymus DNA, 1% SDS.
A SDS/protein precipitate was formed by the addition of 28 μl 2.5M KCl followed by chilling on ice for a minimum of 10 minutes. The precipitate was collected and washed with a Brandell cell harvester on a GFB glass fiber filter membrane as follows. The contents of the assay tube were drawn up into the harvester. The tube was then rinsed 7X with 10 mM Tris-Cl pH 7.5, 1 mM EDTA and 100 mM KCl. […] After drying, CPM was determined by liquid scintillation counting with 5 ml Biofluor (NEN Research Products) or Readisafe (Beckman Instruments Inc.) cocktail.
This solution then was diluted 1/5 into water and serially thereafter in either 0.02N sodium hydroxide or 0.04N hydrogen chloride, respectively. The stock solution and serial dilution of the test compound was stored at -20° C. prior to testing.
Screening of test compound--As an initial screen, the test compound was tested at a final concentration of 2, 20 and 200 μg/ml. The compound was then retested at a range of concentrations (usually 2-3X steps) bridging their approximate EC50 's, as estimated by the prescreen.
Controls--A solvent control which indicates the base level of topo II-DNA complex formed in the absence of the test compound was included in each test. A control, in which topo II was omitted, was included for each test compound at the highest drug concentration tested.
Reference Agent--A dose response curve with mAMSA at 0.01, 0.08, 0.16, 0.32, 1.0 and 10 μg/ml was included in each test.
The maximal DNA-topo II complex formed is taken as that equal to that formed at the nearly saturating dose of mAMSA (10 μg/ml).

[2] = In vivo antitumor assay, Mam16C(sc); parameters: species or system mouse; conditions: mouse, in vivo, drug route iv, qd 1, bid 2,3
From the text: (§1) Mice: Inbred: C3H/He and NCR-nu; and Hybrids: B6D2Fl (C57BL/6 females X DBA/2 males, CD2Fl (Balb/c females X DBS/2 males) and B6x C3fl (C57BL/6 x C3H) were bred at Wayne State University from strained obtained from the Frederick Cancer Research Facility, Frederick, Md. or purchased from commercial suppliers.
(§2) Tumors: Murine Tumor: P388 and an adriamycin-resistant (ADR) subline P388/ADR leukemia and the following transplantable solid tumors of mice were used for in Vivo testing: B16 melanoma (B16), pancreatic ductal adenocarcinoma No. 03 (Panc 03), colon adenocarcinoma No. 38 (colo 38), mammary ductal adenocarcinoma No. 16/C (Mam16) and an adriamycin-resistantsubline Mam16C/ADR. Human tumor: A single human tumor, mammary carcinoma MX-1 (MX1) was used for in vivo testing. All tumors are in the Developmental Therapeutics Program frozen tumor respository, maintained by the Biological Testing Branch, Frederick Md. Each has a detailed description, code identification number, and list of references at the National Tumor Repository. […]
(§3) Quantitative end points used assess antitumor activity included % Increased Life Span (% ILS), Tumor Cell Kill (Log10 kill), and Tumor Growth Inhibition (T/C). […]
(§4) The log10 cell kill was calculated from the following formula: [formula] where T-C is the tumor difference in the median day of death between the treated (T) and the control (C) groups and Td is the tumor doubling time (in days), the latter estimated from the best fit straight line from a log-linear growth plot of the control-group tumors in exponential growth. […]
(§5) Tumors were measured with a caliper once or twice weekly (as needed) until either tumors exceeded 1600 mg or cure was assured. […] When the control group tumors reached approximately 750-1500 mg in size (median of group), the median tumor weight of each group was determined (including zeros). […] The % T/C was calculated from the following formula for solid murine tumor models: [formula] where T and C are median tumor weights of the treatment and control groups, respectively. […]

[3] = test system: mammary ductal adenocarcinoma No. 16/C (Mam16); assay: In vivo antitumor assay, Mam16C(sc); parameters: species or system mouse; conditions: drug route iv
From the text: as §1, §2, §3, §4, §5

T1 sequence (P11388 whole entry): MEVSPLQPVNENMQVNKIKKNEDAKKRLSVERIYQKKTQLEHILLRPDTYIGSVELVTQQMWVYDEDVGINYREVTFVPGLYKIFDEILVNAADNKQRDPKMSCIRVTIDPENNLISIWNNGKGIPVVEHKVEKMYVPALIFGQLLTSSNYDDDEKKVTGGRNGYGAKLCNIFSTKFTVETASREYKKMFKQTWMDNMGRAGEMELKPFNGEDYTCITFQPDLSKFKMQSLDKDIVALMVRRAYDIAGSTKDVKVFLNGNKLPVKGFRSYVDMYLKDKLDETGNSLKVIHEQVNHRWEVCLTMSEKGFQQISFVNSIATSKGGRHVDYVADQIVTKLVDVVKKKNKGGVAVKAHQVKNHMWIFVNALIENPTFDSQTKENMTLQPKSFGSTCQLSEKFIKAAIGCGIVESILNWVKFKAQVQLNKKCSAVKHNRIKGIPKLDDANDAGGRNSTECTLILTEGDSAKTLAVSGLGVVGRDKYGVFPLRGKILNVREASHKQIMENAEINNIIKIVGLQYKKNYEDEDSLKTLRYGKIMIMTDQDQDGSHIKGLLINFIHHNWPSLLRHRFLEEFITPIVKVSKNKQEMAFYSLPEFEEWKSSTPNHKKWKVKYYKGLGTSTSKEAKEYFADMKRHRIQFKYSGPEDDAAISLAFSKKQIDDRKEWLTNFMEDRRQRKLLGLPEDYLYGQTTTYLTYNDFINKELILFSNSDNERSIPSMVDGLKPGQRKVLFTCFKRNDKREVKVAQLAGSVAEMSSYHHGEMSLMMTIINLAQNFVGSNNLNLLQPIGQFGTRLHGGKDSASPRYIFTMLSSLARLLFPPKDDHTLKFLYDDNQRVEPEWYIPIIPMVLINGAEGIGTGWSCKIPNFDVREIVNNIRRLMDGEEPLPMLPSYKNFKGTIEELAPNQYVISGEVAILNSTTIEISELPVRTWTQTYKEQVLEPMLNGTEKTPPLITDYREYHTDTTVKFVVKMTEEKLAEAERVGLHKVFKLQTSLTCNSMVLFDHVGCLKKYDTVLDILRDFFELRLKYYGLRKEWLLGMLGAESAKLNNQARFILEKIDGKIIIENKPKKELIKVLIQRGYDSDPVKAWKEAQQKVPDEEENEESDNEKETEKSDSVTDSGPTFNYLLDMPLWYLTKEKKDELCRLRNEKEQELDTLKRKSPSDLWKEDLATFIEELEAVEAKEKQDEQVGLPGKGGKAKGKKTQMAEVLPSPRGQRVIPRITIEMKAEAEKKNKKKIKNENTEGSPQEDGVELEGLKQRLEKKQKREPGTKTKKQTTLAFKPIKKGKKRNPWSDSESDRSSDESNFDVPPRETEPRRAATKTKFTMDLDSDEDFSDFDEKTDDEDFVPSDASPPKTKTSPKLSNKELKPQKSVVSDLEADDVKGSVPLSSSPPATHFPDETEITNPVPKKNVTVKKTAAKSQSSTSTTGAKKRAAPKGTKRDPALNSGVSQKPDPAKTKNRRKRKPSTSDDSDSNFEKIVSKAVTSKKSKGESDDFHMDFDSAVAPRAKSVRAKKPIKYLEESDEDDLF

Structure (SMILES)	EC50 [1]	MTD [2]	T/C % ([3]; qd 1, bid 2,3)	LOG KILL ([3]; qd 1, bid 2,3, log10 cell kill)
Cc1cc(-c2c(F)cc3c(=O)c(Cc4c(O)cccc4O)cn(C4CC4)c3c2F)cc(C)n1 [Example 26, 1-Cyclopropyl-6,8-difluoro-7-[2,6-dimethyl-4-pyridinyl]-3-[2,6-dihydroxyphenylmethyl]-1,4-dihydroquinoline-4-one]	96 nM	15 mg/kg	28%	0.90
Cc1cc(-c2c(F)cc3c(=O)c(Cc4ccccc4O)cn(C4CC4)c3c2F)cc(C)n1 [Example 30]	330 nM	–	–	–
